In brackets after ≈: the same amount, converted by molar mass.
Legend:
[1] = tested on: M. tuberculosis clinical isolates, sensitive; assay: microbe, parasite or virus in culture; assay type: cell-based, Mycobacterium tuberculosis; conditions: Table I; agar dilution
M. tuberculosis 27294 = assay: In vitro agar dilution assay (MIC), reference strain; assay type: cell-based, Mycobacterium tuberculosis; conditions: for MIC against M. tuberculosis 27294: Middlebrook 7H10

`O=C(CCC(=O)c1ccccc1)NC[C@H]1CN(c2ccc(N3CCOCC3)c(F)c2)C(=O)O1` [Compound 1, (S)-N-[[3-(3-fluoro-4-morpholinylphenyl)-2-oxo-5-oxazolidinyl]methyl]-4-oxo-4-phenylbutanamide] was tested, and the “MIC against Clinical isolates Sensitive” value [1] was 4 to 16 µg/mL and the “MIC against M. tuberculosis 27294” value (M. tuberculosis 27294) was 16 µg/mL (≈ 35.1 µM).
With `Cc1ccc(C(=O)CCC(=O)NC[C@H]2CN(c3ccc(N4CCOCC4)c(F)c3)C(=O)O2)cc1` [Compound 2, (S)-N-[[3-(3-fluoro-4-morpholinylphenyl)-2-oxo-5-oxazolidinyl]methyl]-4-(4-methylphenyl)-4-oxobutanamide] the “MIC against Clinical isolates Sensitive” value [1] was 8 µg/mL (≈ 17 µM) and the “MIC against M. tuberculosis 27294” value (M. tuberculosis 27294) was 8 µg/mL (≈ 17 µM).
In the case of `O=C(CCC(=O)c1ccccc1)NC[C@H]1CN(c2ccc(N3CCSCC3)c(F)c2)C(=O)O1` [Compound 8, (S)-N-[[3-(3-fluoro-4-thiomorpholinylphenyl)-2-oxo-5-oxazolidinyl]methyl]-4-oxo-4-phenylbutanamide], the “MIC against Clinical isolates Sensitive” value [1] is reported as “.5 to 2 µg/mL” and the “MIC against M. tuberculosis 27294” value (M. tuberculosis 27294) is reported as 2 µg/mL (≈ 4.24 µM).
In the case of `COc1ccc(C(=O)CCC(=O)NC[C@H]2CN(c3ccc(N4CCOCC4)c(F)c3)C(=O)O2)cc1` [Compound 13, (S)-N-[[3-(3-fluoro-4-morpholinylphenyl)-2-oxo-5-oxazolidinyl]methyl]-4-(4-methoxyphenyl)-4-oxobutanamide], the “MIC against Clinical isolates Sensitive” value [1] is reported as 2 µg/mL (≈ 4.12 µM) and the “MIC against M. tuberculosis 27294” value (M. tuberculosis 27294) is reported as 2 µg/mL (≈ 4.12 µM).
In the case of `O=C(CCC(=O)c1ccc(Cl)cc1)NC[C@H]1CN(c2ccc(N3CCOCC3)c(F)c2)C(=O)O1` [Compound 14, (S)-N-[[3-(3-fluoro-4-morpholinylphenyl)-2-oxo-5-oxazolidinyl]methyl]-4-(4-chlorophenyl)-4-oxobutanamide], the “MIC against Clinical isolates Sensitive” value [1] is reported as 0.25 to 0.5 µg/mL and the “MIC against M. tuberculosis 27294” value (M. tuberculosis 27294) is reported as 0.25 µg/mL (≈ 0.51 µM).
`Cc1ccc(C(=S)CCC(=O)NC[C@H]2CN(c3ccc(N4CCOCC4)c(F)c3)C(=O)O2)cc1` [Compound 15, (S)-N-[[3-(3-fluoro-4-morpholinylphenyl)-2-oxo-5-oxazolidinyl]methyl]-4-(4-methylphenyl)-4-thiooxobutanamide] was tested, and the “MIC against Clinical isolates Sensitive” value [1] was over 16 µg/mL and the “MIC against M. tuberculosis 27294” value (M. tuberculosis 27294) was over 16 µg/mL.
For `O=C(CCC(=O)c1ccc2ccccc2c1)NC[C@H]1CN(c2ccc(N3CCOCC3)c(F)c2)C(=O)O1` [Compound 16, (S)-N-[[3-(3-fluoro-4-morpholinylphenyl)-2-oxo-5-oxazolidinyl]methyl]-4-(4-2-naphthyl)-4-oxobutanamide], the “MIC against Clinical isolates Sensitive” value [1] was 0.5 µg/mL (≈ 0.989 µM) and the “MIC against M. tuberculosis 27294” value (M. tuberculosis 27294) was 0.5 µg/mL (≈ 0.989 µM).
For `CC(C)Cc1ccc(C(=O)CCC(=O)NC[C@H]2CN(c3ccc(N4CCOCC4)c(F)c3)C(=O)O2)cc1` [Compound 17], the “MIC against Clinical isolates Sensitive” value [1] was 1.0 µg/mL (≈ 1.95 µM) and the “MIC against M. tuberculosis 27294” value (M. tuberculosis 27294) was 0.5 µg/mL (≈ 0.977 µM).
`O=C(CCC(=O)c1ccc(F)cc1F)NC[C@H]1CN(c2ccc(N3CCOCC3)c(F)c2)C(=O)O1` [Compound 18, (S)-N-[[3-(3-fluoro-4-morpholinylphenyl)-2-oxo-5-oxazolidinyl]methyl]-4-(2,4-difluorophenyl)-4-oxobutanamide] was tested, and the “MIC against Clinical isolates Sensitive” value [1] was 1 to 4 µg/mL and the “MIC against M. tuberculosis 27294” value (M. tuberculosis 27294) was 4− μg/ml.
`O=C(CCC(=O)c1cccs1)NC[C@H]1CN(c2ccc(N3CCOCC3)c(F)c2)C(=O)O1` [Compound 19, (S)-N-[[3-(3-fluoro-4-morpholinylphenyl)-2-oxo-5-oxazolidinyl]methyl]-4-oxo-4-(2-thienyl)butanamide] was tested, and the “MIC against Clinical isolates Sensitive” value [1] was 1 to 2 µg/mL and the “MIC against M. tuberculosis 27294” value (M. tuberculosis 27294) was 2 µg/mL (≈ 4.33 µM).
`CSc1ccc(C(=O)CCC(=O)NC[C@H]2CN(c3ccc(N4CCOCC4)c(F)c3)C(=O)O2)cc1` [Compound 21, (S)-N-[[3-(3-fluoro-4-morpholinylphenyl)-2-oxo-5-oxazolidinyl]methyl]-4-oxo-4-(4-thiomethyl)phenylbutanamide] was tested, and the “MIC against Clinical isolates Sensitive” value [1] was 0.5 to 2 µg/mL and the “MIC against M. tuberculosis 27294” value (M. tuberculosis 27294) was 0.5 µg/mL (≈ 0.997 µM).
With `Cc1ccc(C(=O)CCC(=O)NC[C@H]2CN(c3ccc(N4CCOCC4)c(F)c3)C(=O)O2)c(C)c1` [Compound 25, (S)-N-[[3-(3-fluoro-4-morpholinylphenyl)-2-oxo-5-oxazolidinyl]methyl]-4-(2,4-dimethylphenyl)-4-oxobutanamide] the “MIC against Clinical isolates Sensitive” value [1] was 4 to 16 µg/mL and the “MIC against M. tuberculosis 27294” value (M. tuberculosis 27294) was 4 µg/mL (≈ 8.27 µM).
`Cc1ccc(C(=O)CCC(=O)NC[C@H]2CN(c3ccc(-n4nnc5ccccc54)c(F)c3)C(=O)O2)c(C)c1` [Compound 27, (S)-N-[[3-(3-fluoro-4-benzotriazolylphenyl)-2-oxo-5-oxazolidinyl]methyl]-4-(2,4-dimethylphenyl)-4-oxobutanamide] was tested, and the “MIC against Clinical isolates Sensitive” value [1] was over 16 µg/mL and the “MIC against M. tuberculosis 27294” value (M. tuberculosis 27294) was over 16 µg/mL.
In the case of `O=C(CCC(=O)c1cccs1)NC[C@H]1CN(c2ccc(N3CCCC3)c(F)c2)C(=O)O1` [Compound 28, (S)-N-[[3-(3-fluoro-4-pyrrolidinylphenyl)-2-oxo-5-oxazolidinyl]methyl]-4-oxo-4-(2-thienyl)butanamide], the “MIC against Clinical isolates Sensitive” value [1] is reported as 1 to 2 µg/mL and the “MIC against M. tuberculosis 27294” value (M. tuberculosis 27294) is reported as 0.5 µg/mL (≈ 1.12 µM).
In the case of `O=C(CCC(=O)c1cccs1)NC[C@H]1CN(c2ccc([N+]3([O-])CCOCC3)c(F)c2)C(=O)O1` [Compound 31, (S)-N-[[3-(3-fluoro-4-morpholinylphenyl)-2-oxo-5-oxazolidinyl]methyl]-4-oxo-4-(2-thienyl)butanamide-N-oxide], the “MIC against Clinical isolates Sensitive” value [1] is reported as 1 to 2 µg/mL and the “MIC against M. tuberculosis 27294” value (M. tuberculosis 27294) is reported as 1 µg/mL (≈ 2.09 µM).
In the case of `O=C(CCC(=O)c1ccc(Cl)cc1)NC[C@H]1CN(c2ccc([N+]3([O-])CCOCC3)c(F)c2)C(=O)O1` [Compound 32, (S)-N-[[3-(3-fluoro-4-morpholinylphenyl)-2-oxo-5-oxazolidinyl]methyl]-4-(4-chlorophenyl)-4-oxobutanamide-N-oxide], the “MIC against Clinical isolates Sensitive” value [1] is reported as 0.25 to 0.5 µg/mL and the “MIC against M. tuberculosis 27294” value (M. tuberculosis 27294) is reported as 0.25 µg/mL (≈ 0.494 µM).
For `CC(C)Cc1ccc(C(=O)CCC(=O)NC[C@H]2CN(c3ccc([N+]4([O-])CCOCC4)c(F)c3)C(=O)O2)cc1` [Compound 33], the “MIC against Clinical isolates Sensitive” value [1] was 1 µg/mL (≈ 1.9 µM) and the “MIC against M. tuberculosis 27294” value (M. tuberculosis 27294) was 0.5 µg/mL (≈ 0.948 µM).
For `O=C(C=CC(=O)c1ccccc1)NC[C@H]1CN(c2ccc(N3CCOCC3)c(F)c2)C(=O)O1` [Compound 34, (S)-N-[[3-(3-fluoro-4-morpholinylphenyl)-2-oxo-5-oxazolidinyl]methyl]-4-oxo-4-phenylbut-2-enamide], the “MIC against Clinical isolates Sensitive” value [1] was over 16 µg/mL and the “MIC against M. tuberculosis 27294” value (M. tuberculosis 27294) was over 16 µg/mL.
Work on `O=C(CCC(=O)c1ccc(F)cc1F)NC[C@H]1CN(c2ccc(-c3nc[nH]n3)c(F)c2)C(=O)O1` [Compound 51, (S)-N-[[3-(3-fluoro-4-(1,2,4-triazolyl)phenyl)-2-oxo-5-oxazolidinyl]methyl]-4-(2,4-difluorophenyl)-4-oxobutanamide] yielded an MIC (M. tuberculosis 27294; Mycobacterium tuberculosis, 27294, Middlebrook 7H10, read-out: MIC against M. tuberculosis 27294) of 8 µg/mL (≈ 16.9 µM).
With `O=C(CCC(=O)c1ccc2ccccc2c1)NC[C@H]1CN(c2ccc(N3CCCC3)c(F)c2)C(=O)O1` [Compound 57, (S)-N-[[3-(3-fluoro-4-pyrrolidinylphenyl)-2-oxo-5-oxazolidinyl]methyl]-4-(2-naphthyl)-4-oxobutanamide] the “MIC against M. tuberculosis 27294” value (M. tuberculosis 27294) was 16 µg/mL (≈ 32.7 µM).
`CCCc1ccc(C(=O)CCC(=O)NC[C@H]2CN(c3ccc(N4CCCC4)c(F)c3)C(=O)O2)c(C)c1` [Compound 58, (S)-N-[[3-(3-fluoro-4-pyrrolidinylphenyl)-2-oxo-5-oxazolidinyl]methyl]-4-(2′-methyl-4-propylphenyl)-4-oxobutanamide] was tested, and the “MIC against M. tuberculosis 27294” value (M. tuberculosis 27294) was 8 µg/mL (≈ 16.1 µM).

Source: patent US7691889B2, “Antimycobacterial compounds” (Lupin Limited, priority 2002, dated 2010)
